Measurements published in EP4685128A1, “NOVEL 2-(1-HYDROXYPENTYL) BENZOIC ACID CYCLOALKYL AMINE SALT” (priority 2023, dated 2024).

Experiments:
[1] = as stated for CN1523003A, background art; cited from earlier work
[2] = Stability test (influence factor test, Chinese Pharmacopoeia 2020 General Chapter 9001); settings: for Decomposition product butylphthalide %: HPLC; for appearance / main peak and butylphthalide content: 30 days under open high-temperature and light exposure
Protocol: An appropriate amount of each compound to be tested was taken, and the influence factor test was conducted according to the General Chapter 9001 of Part 4 of the 2020 Edition of the Chinese Pharmacopoeia. The appearance of the compounds and the content of the main degradation product, butylphthalide, were detected respectively on day 0 and day 30 for each compound. The detection of butylphthalide was performed using high performance liquid chromatography, with a column packed with octadecylsilane-bonded silica gel, and a mobile phase of methanol-water (65:35).

MCAO rats [3] = experiment: Neurological deficit scoring (Longa method) in rat MCAO ischemia-reperfusion stroke model; settings: for neurological symptoms of rats compared with the model group: 24 h postoperatively, t-test versus model group, doses as in Table 1; for Score 2h: neurological deficit score 2 h after ischemia (administration started at reperfusion after 2 h); for Score 2h / Score 24h: tail vein, single dose, n=10; for Score 24h: neurological deficit score 24 h post-surgery
Protocol: Administration was initiated upon reperfusion after 2 hours of ischemia. The model and the sham operation group were given an equal volume 5% glucose injection solution via tail vein injection, while the other groups were injected with the corresponding drugs via tail vein, each with a single dose. […] Performing modeling surgery: The rat MCAO model was established with reference to the Longa intraluminal filament occlusion method. Nylon monofilament was cut into 2 cm lengths, the tip was dipped into a tiny amount of molten paraffin, after cooling, the ends of the nylon threads were completely wrapped for later use. The rats were completely anesthetized with 3% sodium pentobarbital (30 mg/kg), and placed supine, and secured on a surgical board. The cervical skin was prepared and disinfected, a 2-cm mid line incision was made. The left common carotid artery was bluntly isolated, and the external and internal carotid arteries were dissected free along the common carotid artery. The distal ends of the common carotid artery and the external carotid artery were ligated, and the internal carotid artery was occluded using hemostatic forceps. A small arteriotomy was made in the common carotid artery and the prepared nylon monofilament was inserted through the opening. The wax-coated tip was inserted into the common carotid artery and advanced into the internal carotid artery, the hemostat was released, and the advancement of the wax tip was stopped when it was 13-16 mm from the opening. The filament was secured, and the cervical incision was closed. After 2 h of occlusion, rats were anesthetized and the filament was withdrawn. In the sham operation group, rats were completely anesthetized with only 3% sodium pentobarbital. After cervical skin preparation and incision, the common carotid artery was bluntly isolated, and the wound immediately closed, without filament insertion. […] Neurological deficit scoring: scoring time: before modeling, 2 h after ischemia, and 24 h post-surgery, all surviving animals were scored in a blinded manner using a modified neurological deficit score. The scoring criteria of Longa's method were as follows: 0: normal neurological function; 1: mild neurological deficit: when suspended by the tail, the animal's left forelimb was flexed; 2: moderate neurological deficit: when placed on a smooth surface, the animal circles to the left side while walking; 3: moderate neurological deficit: at rest, the animal leans to the left side; 4: depressed consciousness with no spontaneous limb movements; 5: unresponsive to stimuli or death. […] Result analysis: The t-test was used to compare the behavioral test scores between groups.

MCAO rats [4] = experiment: Cerebral infarct volume (TTC staining) in rat MCAO ischemia-reperfusion model; assay type: in vivo; settings: for extent of cerebral infarction compared with the model group: 24 h, t-test versus model group, doses as in Table 2; for Percentage of cerebral infarction volume (%): 24 hours after MCAO ischemia, tail vein, single dose, n=10
[5] = as stated for CN1523003A, background art; cited from earlier work; remark: listed apart in the source
[6] = tested on: platelet aggregation in rats; experiment: ADP-induced platelet aggregation in platelet-rich plasma of rats after oral gavage; assay type: in vivo; settings: for Maximum platelet aggregation rate (%): blood taken 3 hours after gavage, 20µM ADP, platelet-rich plasma, n=10; for platelet aggregation rate compared with the solvent control group: significance versus solvent control group, doses as in Table 3
Protocol: After oral gavage administration for 3 hours on the same day, blood was collected from the abdominal aorta to obtain platelet-rich plasma from each group. Platelet aggregation was induced by 20µM ADP, and the maximum platelet aggregation rate in platelet-rich plasma was determined by platelet aggregometer, to evaluate and compare the effects of platelet aggregation in rats.

[7] = Solubility test (Chinese Pharmacopoeia 2020 method); assay type: physicochemical
SD rats = experiment: Repeated administration toxicity test in rats (14 days, tail vein); settings: once daily for 14 consecutive days, n=10

CC(C)(C)N.CCCCC(O)c1ccccc1C(=O)O (stereo not shown) [Tert-butylamine salt, 2-(1-hydroxypentyl)benzoic acid tert-butylamine salt, reference compound]
toxicity [1]: highly toxic | Property ([2]; 0 day): White powder | Decomposition product butylphthalide % ([2]; 0 day): 0.041% | Property ([2]; high humidity RH92.5%, 30 days): White powder | Decomposition product butylphthalide % ([2]; high humidity RH92.5%, 30 days): 10.214%

CCCCC(O)c1ccccc1C(=O)[O-].[K+] (stereo not shown) [Potassium salt, 2-(1-hydroxypentyl)benzoic acid potassium salt, reference compound]
toxicity [1]: greater toxicity | neurological symptoms of rats compared with the model group (MCAO rats [3]): significantly improved | Score 2h (MCAO rats [3]; group dose 0.016 mmol/kg): 2.9±0.99 | Score 24h (MCAO rats [3]; 0.016 mmol/kg): 1.90±0.74 | extent of cerebral infarction compared with the model group (MCAO rats [4]): significantly reduced | Percentage of cerebral infarction volume (%) (MCAO rats [4]; 0.016 mmol/kg): 29.7±5.72 % | hygroscopicity [5]: highly hygroscopic | Property ([2]; 0 day): White powder | Decomposition product butylphthalide % ([2]; 0 day): 0.090% | Property ([2]; high humidity RH92.5%, 30 days): Partially deliquescent and liquefied | Decomposition product butylphthalide % ([2]; high humidity RH92.5%, 30 days): 25.687% | Maximum platelet aggregation rate (%) ([6]; ig 200 mg/kg): 48.50±8.29 % | platelet aggregation rate compared with the solvent control group [6]: highly significantly different

CCCC12CC3CC(CC(N)(C3)C1)C2.CCCCC(O)c1ccccc1C(=O)O (stereo not shown) [Compound 6, 3-n-propyladamantane-1-amine 2-(1-hydroxypentyl)benzoate salt]
Maximum platelet aggregation rate (%) ([6]; ig 200 mg/kg): 40.30±12.26 %

CCCCC(O)c1ccccc1C(=O)O.N[C@@H]1[C@@H]2C[C@@H]3C[C@H]1C[C@@](O)(C3)C2 (stereo not drawn) [Compound 10, trans-1-hydroxyadamantan-4-amine 2-(1-hydroxypentyl)benzoate salt]
neurological symptoms of rats compared with the model group (MCAO rats [3]): highly significant | Score 2h (MCAO rats [3]; group dose 0.016 mmol/kg): 2.9±1.52 | Score 24h (MCAO rats [3]; 0.016 mmol/kg): 1.61±1.07 | extent of cerebral infarction compared with the model group (MCAO rats [4]): significantly reduced | Percentage of cerebral infarction volume (%) (MCAO rats [4]; 0.016 mmol/kg): 25.8±4.52 % | Maximum platelet aggregation rate (%) ([6]; ig 200 mg/kg): 38.20±12.25 %

CC1C2CC3CC(C2)CC1(N)C3.CCCCC(O)c1ccccc1C(=O)O (stereo not shown) [Compound 3, 2-methyladamantan-1-amine 2-(1-hydroxypentyl)benzoate salt]
Maximum platelet aggregation rate (%) ([6]; ig 200 mg/kg): 37.50±9.42 %

CCCCC(O)c1ccccc1C(=O)O.NC1CCC(O)CC1 (stereo not shown) [Compound 13, 4-hydroxycyclohexan-1-amine 2-(1-hydroxypentyl)benzoate salt]
Maximum platelet aggregation rate (%) ([6]; ig 200 mg/kg): 42.10±5.99 %

CCCCC(O)c1ccccc1C(=O)O.NCc1ccccc1 (stereo not shown) [benzylamine salt]
toxicity [1]: highly toxic

CC(C)NC(C)C.CCCCC(O)c1ccccc1C(=O)O (stereo not shown) [Diisopropylamine salt, 2-(1-hydroxypentyl)benzoic acid diisopropylamine salt, reference compound]
Property ([2]; 0 day): White powder | Decomposition product butylphthalide % ([2]; 0 day): 0.087% | Property ([2]; high humidity RH92.5%, 30 days): White powder | Decomposition product butylphthalide % ([2]; high humidity RH92.5%, 30 days): 8.025%

CCCCC(O)c1ccccc1C(=O)O.c1ccc(CNCCNCc2ccccc2)cc1 [N'N-dibenzylethylenediamine salt, reference compound]
toxicity [1]: lower toxicity | Maximum platelet aggregation rate (%) ([6]; ig 200 mg/kg): 46.6±10.78 % | platelet aggregation rate compared with the solvent control group [6]: highly significantly different

NC12CC3CC(CC(C3)C1)C2 [Amantadine, amantadine, reference compound]
neurological symptoms of rats compared with the model group (MCAO rats [3]): no significant improvement | Score 2h (MCAO rats [3]; group dose 0.016 mmol/kg): 2.5±1.08 | Score 24h (MCAO rats [3]; 0.016 mmol/kg): 3.00±0.82 | extent of cerebral infarction compared with the model group (MCAO rats [4]): no significant inhibitory effect | Percentage of cerebral infarction volume (%) (MCAO rats [4]; 0.016 mmol/kg): 35.1±4.56%

CC(=O)Oc1ccccc1C(=O)O [Aspirin, reference compound]
Maximum platelet aggregation rate (%) ([6]; ig 100 mg/kg): 27.00±6.48 % | platelet aggregation rate compared with the solvent control group [6]: highly significantly different

CC12CC3CC(C)(C1)CC(N)(C3)C2.CCCCC(O)c1ccccc1C(=O)O (stereo not shown) [Compound 4, 3,5-dimethyladamantane-1-amine 2-(1-hydroxypentyl)benzoate salt]
Solubility ([7]; medium Water, about 0.01 g sample in 9.0 ml): Completely soluble | Solubility ([7]; medium pH4.5, about 0.01 g sample in 9.0 ml): Completely soluble | Solubility ([7]; medium pH6.8, about 0.01 g sample in 9.0 ml): Completely soluble | neurological symptoms of rats compared with the model group (MCAO rats [3]): highly significant | Score 2h (MCAO rats [3]; group dose 0.016 mmol/kg): 2.7±1.16 | Score 24h (MCAO rats [3]; 0.016 mmol/kg): 1.50±0.53 | extent of cerebral infarction compared with the model group (MCAO rats [4]): significantly reduced | Percentage of cerebral infarction volume (%) (MCAO rats [4]; 0.016 mmol/kg): 25.1±4.41 % | Mortality rate (%) (SD rats; high dose 105 mg/kg): 0% | Mortality rate (%) (SD rats; low dose 15 mg/kg): 0% | Mortality rate (%) (SD rats; medium dose 45 mg/kg): 0% | Property ([2]; 0 day): White powder | Decomposition product butylphthalide % ([2]; 0 day): 0.107% | appearance [2]: remains unchanged | main peak and butylphthalide content [2]: minimal variation | Property ([2]; high humidity RH92.5%, 30 days): White powder | Decomposition product butylphthalide % ([2]; high humidity RH92.5%, 30 days): 0.258% | Maximum platelet aggregation rate (%) ([6]; ig 200 mg/kg): 38.10±6.24 %

Bicyclo[2,2,1]heptane-2-amine 2-(1-hydroxypentyl)benzoate salt [Compound 16]
Maximum platelet aggregation rate (%) ([6]; ig 200 mg/kg): 44.10±5.15 %

CC1CC1N.CCCCC(O)c1ccccc1C(=O)O (stereo not shown) [Compound 15, 2-methylcyclopropane-1-amine 2-(1-hydroxypentyl)benzoate salt]
Maximum platelet aggregation rate (%) ([6]; ig 200 mg/kg): 41.10±6.45 %

CCCCC1OC(=O)c2ccccc21 (stereo not shown) [Butylphthalide, reference compound]
neurological symptoms of rats compared with the model group (MCAO rats [3]): significantly improved | Score 2h (MCAO rats [3]; group dose 0.053 mmol/kg): 2.8±1.03 | Score 24h (MCAO rats [3]; 0.053 mmol/kg): 2.10±0.99 | extent of cerebral infarction compared with the model group (MCAO rats [4]): significantly reduced | Percentage of cerebral infarction volume (%) (MCAO rats [4]; 0.053 mmol/kg): 31.0±7.50 % | Maximum platelet aggregation rate (%) ([6]; ig 200 mg/kg): 57.50±9.05 % | platelet aggregation rate compared with the solvent control group [6]: significantly different

CCCCC(O)c1ccccc1C(=O)O.NC12CC3CC(C1)C(F)C(C3)C2 (stereo not shown) [Compound 7, 4-fluoroadamantane-1-amine 2-(1-hydroxypentyl)benzoate salt]
Maximum platelet aggregation rate (%) ([6]; ig 200 mg/kg): 37.90±12.60 %

CCCCC(O)c1ccccc1C(=O)O.NC12CC3CC(CC(C3)C1)C2 (stereo not shown) [Compound 1, amantadine 2-(1-hydroxypentyl)benzoate salt]
neurological symptoms of rats compared with the model group (MCAO rats [3]): highly significant | Score 2h (MCAO rats [3]; group dose 0.016 mmol/kg): 2.8±1.14 | Score 24h (MCAO rats [3]; 0.016 mmol/kg): 1.60±0.84 | extent of cerebral infarction compared with the model group (MCAO rats [4]): significantly reduced | Percentage of cerebral infarction volume (%) (MCAO rats [4]; 0.016 mmol/kg): 25.7±5.29 % | Mortality rate (%) (SD rats; high dose 105 mg/kg): 0% | Mortality rate (%) (SD rats; low dose 15 mg/kg): 0% | Mortality rate (%) (SD rats; medium dose 45 mg/kg): 0% | Property ([2]; 0 day): White powder | Decomposition product butylphthalide % ([2]; 0 day): 0.114% | appearance [2]: remains unchanged | main peak and butylphthalide content [2]: minimal variation | Property ([2]; high humidity RH92.5%, 30 days): White powder | Decomposition product butylphthalide % ([2]; high humidity RH92.5%, 30 days): 0.298% | Maximum platelet aggregation rate (%) ([6]; ig 200 mg/kg): 34.60±9.57 %
